{"source": "ChEMBL document CHEMBL3797148", "about": "“Antiprotozoal activity of dehydroabietic acid derivatives against Leishmania donovani and Trypanosoma cruzi” (Medchemcomm, 2016)", "key": {"Leishmania infantum": {"tested_on": "Leishmania infantum", "experiment": "Antileishmanial activity against promastigote stage of Leishmania infantum MCAN/ES/2001/UCM-10 after 72 hrs by Neubauer haemocytometric analysis", "assay_type": "functional, organism-based", "conditions": "MCAN/ES/2001/UCM-10, 72 h"}, "Leishmania braziliensis": {"tested_on": "Leishmania braziliensis", "experiment": "Antileishmanial activity against promastigote stage of Leishmania braziliensis MHOM/BR/75/M2904 after 72 hrs by Neubauer haemocytometric analysis", "assay_type": "functional", "conditions": "MHOM/BR/75/M2904, 72 h"}, "Trypanosoma cruzi [1]": {"tested_on": "Trypanosoma cruzi", "experiment": "Antiparasitic activity against epimastigote stage of Trypanosoma cruzi IRHOD/CO/2008/SN3 after 72 hrs by Neubauer haemocytometric analysis", "assay_type": "functional, organism-based", "conditions": "IRHOD/CO/2008/SN3, 72 h"}, "Leishmania donovani [2]": {"tested_on": "Leishmania donovani", "experiment": "Antileishmanial activity against axenic amastigote stage of Leishmania donovani MHOM/SD/1962/1S-Cl2d assessed as inhibition of parasite growth at 50 uM after 24 hrs by Alamar blue viability assay", "assay_type": "functional", "conditions": "read-out: GI"}, "L6": {"tested_on": "L6", "experiment": "Cytotoxicity against rat L6 cells after 72 hrs by Alamar blue assay", "assay_type": "cell-based", "conditions": "L6, 72 h"}, "[3]": {"experiment": "Selectivity index, ratio of IC50 for rat L6 cells to IC50 for amastigote stage of Trypanosoma cruzi Tulahuen C2C4 expressing LacZ gene infected in rat L6 cells", "assay_type": "toxicity, cell-based", "conditions": "read-out: Ratio IC50"}, "Trypanosoma cruzi [4]": {"tested_on": "Trypanosoma cruzi", "experiment": "Potency index of ratio of Benznidazole IC50 to compound IC50 for antiparasitic activity against amastigote stage of Trypanosoma cruzi Tulahuen C2C4", "assay_type": "functional"}, "Leishmania donovani [5]": {"tested_on": "Leishmania donovani", "experiment": "Antileishmanial activity against axenic amastigote stage of Leishmania donovani MHOM/SD/1962/1S-Cl2d assessed as inhibition of parasite growth at 15 uM after 24 hrs by Alamar blue viability assay", "assay_type": "functional", "conditions": "read-out: GI"}, "Trypanosoma cruzi [6]": {"tested_on": "Trypanosoma cruzi", "experiment": "Antiparasitic activity against amastigote stage of Trypanosoma cruzi Tulahuen C2C4 expressing LacZ gene infected in rat L6 cells after 96 hrs by photometric analysis", "assay_type": "functional, organism-based", "conditions": "Tulahuen C2C4, L6, 96 h"}, "Leishmania donovani [7]": {"tested_on": "Leishmania donovani", "experiment": "Antileishmanial activity against axenic amastigote stage of Leishmania donovani MHOM/SD/1962/1S-Cl2d assessed as inhibition of parasite growth at 5 uM after 24 hrs by Alamar blue viability assay", "assay_type": "functional", "conditions": "read-out: GI"}, "Leishmania donovani [8]": {"tested_on": "Leishmania donovani", "experiment": "Antileishmanial activity against axenic amastigote stage of Leishmania donovani MHOM/SD/1962/1S-Cl2d assessed as inhibition of parasite growth after 24 hrs by Alamar blue viability assay", "assay_type": "functional, organism-based"}, "[9]": {"experiment": "Cytotoxicity against human THP1 cells after 24 hrs by Alamar blue viability assay", "assay_type": "cell-based", "conditions": "THP-1, 24 h"}, "[10]": {"experiment": "Selectivity index, ratio of IC50 for human THP-1 cells to IC50 for Leishmania donovani MHOM/SD/1962/1S-Cl2d axenic amastigotes", "assay_type": "toxicity, cell-based", "conditions": "read-out: Ratio IC50"}, "Leishmania donovani [11]": {"tested_on": "Leishmania donovani", "experiment": "Antileishmanial activity against Leishmania donovani promastigotes infected in human THP1 cells assessed as inhibition of amastigote growth by luciferase assay", "assay_type": "functional, organism-based", "conditions": "THP-1"}}, "note": "pIC50: −log10 of the molar value.", "data": [{"compound": "COC(=O)[C@]1(C)CCC[C@]2(C)C3=C(CC[C@@H]12)C(=O)C(C(C)C)=CC3=O", "values": [{"measurement": "pIC50", "setting": "Leishmania infantum", "result": 4.85}, {"measurement": "pIC50", "setting": "Leishmania braziliensis", "result": 4.85}, {"measurement": "pIC50", "setting": "Trypanosoma cruzi [1]", "result": 4.85}]}, {"compound": "COC(=O)[C@H](Cc1ccccc1)NC(=O)[C@]1(C)CCC[C@]2(C)c3ccc(C(C)C)cc3CC[C@@H]12", "values": [{"measurement": "inhibition of growth at 50 µM", "setting": "Leishmania donovani [2]", "result": 68.6, "unit": "%"}]}, {"compound": "COC(=O)[C@@H](NC(=O)[C@]1(C)CCC[C@]2(C)c3ccc(C(C)C)cc3CC[C@@H]12)C(C)C", "values": [{"measurement": "inhibition of growth at 50 µM", "setting": "Leishmania donovani [2]", "result": 57.1, "unit": "%"}]}, {"compound": "COC(=O)[C@@H](Cc1cccnc1)NC(=O)[C@]1(C)CCC[C@]2(C)c3ccc(C(C)C)cc3CC[C@@H]12", "values": [{"measurement": "pIC50", "setting": "L6", "result": 4.62}, {"measurement": "selectivity ratio", "setting": "[3]", "result": 17}, {"measurement": "Ratio IC50", "setting": "Trypanosoma cruzi [4]", "result": 1.5}, {"measurement": "inhibition of growth at 50 µM", "setting": "Leishmania donovani [2]", "result": 98.6, "unit": "%"}, {"measurement": "inhibition of growth at 15 µM", "setting": "Leishmania donovani [5]", "result": 16.5, "unit": "%"}, {"measurement": "pIC50", "setting": "Trypanosoma cruzi [6]", "result": 5.85}]}, {"compound": "COC(=O)CNC(=O)[C@]1(C)CCC[C@]2(C)c3ccc(C(C)C)cc3C(=O)C[C@@H]12", "values": [{"measurement": "inhibition of growth at 50 µM", "setting": "Leishmania donovani [2]", "result": 37.1, "unit": "%"}]}, {"compound": "CC(C)c1ccc2c(c1)/C(=N\\O)C[C@H]1[C@](C)(C(=O)N[C@@H](CC3CCCCC3)C(=O)O)CCC[C@]21C", "values": [{"measurement": "inhibition of growth at 50 µM", "setting": "Leishmania donovani [2]", "result": 97.7, "unit": "%"}, {"measurement": "inhibition of growth at 15 µM", "setting": "Leishmania donovani [5]", "result": 52.3, "unit": "%"}]}, {"compound": "CC(C)c1ccc2c(c1)CC[C@H]1[C@](C)(C(N)=O)CCC[C@]21C", "values": [{"measurement": "inhibition of growth at 50 µM", "setting": "Leishmania donovani [2]", "result": 55.2, "unit": "%"}]}, {"compound": "CSCC[C@@H](NC(=O)[C@]1(C)CCC[C@]2(C)c3ccc(C(C)C)cc3CC[C@@H]12)C(=O)O", "values": [{"measurement": "inhibition of growth at 50 µM", "setting": "Leishmania donovani [2]", "result": 98, "unit": "%"}, {"measurement": "inhibition of growth at 15 µM", "setting": "Leishmania donovani [5]", "result": 47, "unit": "%"}]}, {"compound": "COC(=O)[C@H](CC1CCCCC1)NC(=O)[C@]1(C)CCC[C@]2(C)c3ccc(C(C)C)cc3CC[C@@H]12", "values": [{"measurement": "inhibition of growth at 50 µM", "setting": "Leishmania donovani [2]", "result": 43.2, "unit": "%"}]}, {"compound": "CC[C@H](NC(=O)[C@]1(C)CCC[C@]2(C)c3ccc(C(C)C)cc3CC[C@@H]12)C(=O)OC", "values": [{"measurement": "inhibition of growth at 50 µM", "setting": "Leishmania donovani [2]", "result": 57.6, "unit": "%"}]}, {"compound": "CC(C)c1ccc2c(c1)CC[C@H]1[C@](C)(C(=O)N[C@H](Cc3ccccc3)C(=O)O)CCC[C@]21C", "values": [{"measurement": "pIC50", "setting": "L6", "result": 4.22}, {"measurement": "selectivity ratio", "setting": "[3]", "result": 2}, {"measurement": "inhibition of growth at 50 µM", "setting": "Leishmania donovani [2]", "result": 98.3, "unit": "%"}, {"measurement": "inhibition of growth at 15 µM", "setting": "Leishmania donovani [5]", "result": 96.8, "unit": "%"}, {"measurement": "inhibition of growth at 5 µM", "setting": "Leishmania donovani [7]", "result": 54.1, "unit": "%"}, {"measurement": "pIC50", "setting": "Leishmania donovani [8]", "result": 5.28}, {"measurement": "pIC50", "setting": "[9]", "result": 4.38}, {"measurement": "selectivity ratio", "setting": "[10]", "result": 8}, {"measurement": "pIC50", "setting": "Trypanosoma cruzi [6]", "result": 4.56}]}, {"compound": "COC(=O)[C@H](CC1CCCCC1)NC(=O)[C@]1(C)CCC[C@]2(C)c3ccc(C(C)C)cc3/C(=N\\O)C[C@@H]12", "values": [{"measurement": "pIC50", "setting": "L6", "result": 4.87}, {"measurement": "selectivity ratio", "setting": "[3]", "result": 2}, {"measurement": "inhibition of growth at 50 µM", "setting": "Leishmania donovani [2]", "result": 90.8, "unit": "%"}, {"measurement": "inhibition of growth at 15 µM", "setting": "Leishmania donovani [5]", "result": 85.8, "unit": "%"}, {"measurement": "inhibition of growth at 5 µM", "setting": "Leishmania donovani [7]", "result": 52.9, "unit": "%"}, {"measurement": "pIC50", "setting": "Leishmania donovani [8]", "result": 5.25}, {"measurement": "pIC50", "setting": "[9]", "result": 4.43}, {"measurement": "selectivity ratio", "setting": "[10]", "result": 7}, {"measurement": "pIC50", "setting": "Trypanosoma cruzi [6]", "result": 5.24}]}, {"compound": "CC(C)c1ccc2c(c1)CC[C@H]1[C@](C)(C(=O)NCC(=O)O)CCC[C@]21C", "values": [{"measurement": "inhibition of growth at 50 µM", "setting": "Leishmania donovani [2]", "result": 69.3, "unit": "%"}]}, {"compound": "CC(C)c1ccc2c(c1)CC[C@H]1[C@](C)(C(=O)N[C@H](Cc3ccc(O)cc3)C(=O)O)CCC[C@]21C", "values": [{"measurement": "inhibition of growth at 50 µM", "setting": "Leishmania donovani [2]", "result": 96.1, "unit": "%"}, {"measurement": "inhibition of growth at 15 µM", "setting": "Leishmania donovani [5]", "result": 9.8, "unit": "%"}]}, {"compound": "CC(C)c1ccc2c(c1)CC[C@H]1[C@](C)(C(=O)N[C@@H](CC3CCCCC3)C(=O)O)CCC[C@]21C", "values": [{"measurement": "pIC50", "setting": "L6", "result": 4.54}, {"measurement": "selectivity ratio", "setting": "[3]", "result": 1}, {"measurement": "inhibition of growth at 50 µM", "setting": "Leishmania donovani [2]", "result": 98.1, "unit": "%"}, {"measurement": "inhibition of growth at 15 µM", "setting": "Leishmania donovani [5]", "result": 92.2, "unit": "%"}, {"measurement": "inhibition of growth at 5 µM", "setting": "Leishmania donovani [7]", "result": 63.6, "unit": "%"}, {"measurement": "pIC50", "setting": "Leishmania donovani [8]", "result": 5.77}, {"measurement": "pIC50", "setting": "[9]", "result": 4.39}, {"measurement": "selectivity ratio", "setting": "[10]", "result": 24}, {"measurement": "pIC50", "setting": "Leishmania donovani [11]", "result": 5.30}, {"measurement": "pIC50", "setting": "Trypanosoma cruzi [6]", "result": 4.64}]}, {"compound": "COC(=O)[C@@H](Cc1c[nH]c2ccccc12)NC(=O)[C@]1(C)CCC[C@]2(C)c3ccc(C(C)C)cc3CC[C@@H]12", "values": [{"measurement": "inhibition of growth at 50 µM", "setting": "Leishmania donovani [2]", "result": 46.9, "unit": "%"}]}]}
